According to patent publication US20220160779A1, “COMPOSITION FOR PROMOTING CARTILAGE TISSUE REGENERATION” (National University Corporation Tokyo Medical and Dental …, priority 2019, published 2022):

Key:
[1] = system: rheumatoid arthritis-derived synovial cells (mesenchymal cells); conditions: cited from earlier work
synovial MSCs [2] = assay: Proliferation assay of synovial MSCs with recombinant protein (MTT assay); assay type: cell-based, human; conditions: rh Activin A at ED50x10 and ED50x100 in 10% FBS and 0.5% FBS medium, days 0-7; FIGS. 5C and D
Description: Primary human synovial cells were isolated from the synovial tissues obtained from patients who underwent total knee arthroplasty (TKA), as described in Sekiya I. et al, Clin Orthop Relat Res, 2015, 473(7), pp. 2316 to 2326. That is, first, 0.5 to 1 mg of synovium obtained by incising the suprapatellar bursa was subjected to collagenase D treatment (Sigma, MO, USA, 3 hours at 37° C.) to disperse nucleated cells. Debris was removed by passing the cell dispersion through a 70 μm nylon mesh. Nucleated cells were seeded in a 15 cm dish at 5.7×10^2 cells/cm^2 and maintained and cultured in MEM-alpha medium supplemented with 10% FBS and antibiotics (Gibco, MA, USA) for 14 days. The cells were then separated from the dish in TripLE solution (Gibco) and seeded twice more in a new dish to obtain a sufficient cell count to be used in the experiments. Note that in all experiments, cells within 6 passages were used.
To evaluate the pro-proliferative activity of recombinant proteins (IL6, IL8, IL10, and Activin A), MTT assays were performed (see FIGS. 3C and 5C-E). Synovial MSCs were seeded to 1×10^3 cells/well in 96-well plates and cultured in 0.2 mL of normal growth medium 1 day before being subjected to recombinant protein treatment. On the following day, the medium was replaced with a fresh one (normal growth medium or medium with a reduced FBS concentration of 0.5% and recombinant protein added (10 times the concentration of ED50 or 100 times the concentration of ED50)). MTT assays were performed at days 0, 1, 3, 5, and 7 according to the method described in Denizot F. et al., J Immunol Methods, 1986, 89(2), pp. 271 to 277.
In addition, the present inventors tried to clarify the molecular mechanism of MSC proliferative activity by Activin A. It has been reported that the ERK and PI3K signal transduction pathways are activated for MSC proliferation (see Uomizu, M. et al, J Med Dent Sci., 2018, vol. 65, pp. 73 to 82). With the above in mind, Activin A (rh Activin A) was applied to synovial MSCs in the presence of PI3K-PKB/Akt and Erk1/Erk2, a specific inhibitor for each of these signal transduction pathways, and the cell count was measured by MTT assay.

[3] = system: rat model of total articular cartilage loss; assay: Full thickness articular cartilage defect model; assay type: in vivo; conditions: 4 weeks after the defect, FIG. 8
Description: Next, in order to verify the regeneration of damaged articular cartilage and the suppression of degenerative degeneration, a model of full thickness articular cartilage defect was prepared to examine the effects of rh Activin A administration. Specifically, a 1.4 mmφ total articular cartilage loss was prepared in the femoral intercondylar region using an airtome, and 180 ng of Activin A (rh Activin A) was injected intra-articularly 1 week later.

proteoglycans = conditions: cited from earlier work
synovial MSCs [4] = assay: In-vitro differentiation assay of MSCs (cartilage, bone, adipocytes); assay type: cell-based, human
Description: In-vitro differentiation assays were performed according to the method described in Colter D C. et al, Proc Natl Acad Sci USA, 2001, 98, pp. 7841 to 7845.
To form chondrogenic spheroids, 2.5×10^5 cells were transferred into 15 mL polypropylene tubes (BD Biosciences) and subjected to centrifugation at 450×g for 10 minutes. Then, the cell pellets were cultured in chondrogenic medium containing 1000 ng/mL rhBMP-2 (Infuse Bone Graft; Medtronic, TN, USA), 10 ng/mL […], and 100 nM dexamethasone (Sigma-Aldrich, MO, USA) for 14 days.
For calcification, cells were cultured in normal growth medium supplemented with 1 nM dexamethasone, 20 mM β-glycerophosphate, and 50 μg/mL ascorbic acid-2-phosphate (Sigma-Aldrich) for 21 days. Calcified nodule formation was visualized by alizarin red staining (Sigma-Aldrich).
For adipogenesis, the cells were cultured for 21 days in MEM-alpha supplemented with 10% FBS, 100 nM dexamethasone (Sigma-Aldrich), 0.5 mM IBMX (isobutyl-1-methylxanthine; Sigma-Aldrich), and 50 μM indomethacin (Wako, Tokyo, Japan). The adipogenic cultures were immobilized and stained with Oil Red O solution (Sigma-Aldrich).

p44/42 MAPK (Erk1/2) = assay: Western blotting, phosphorylation of p44/42 MAPK (Erk1/2) in synovial MSCs; assay type: cell-based, human; conditions: FIG. 5F
Description: Synovial MSCs were seeded in 6 cm dishes to reach a cell count of 2×10^5, and cultured in normal growth medium for 1 day. The medium was replaced with fresh medium with reduced amount of FBS (MEM-alpha, 0.5% FBS and antibiotics) and cultured for one more day. The cells were treated with rh Activin A and/or PDGF-AA (amount 3 times the ED50) for up to 30 minutes. Then, those cells were lysed with cell lysis buffer (#9803S; Cell Signaling Technology, MA) to prepare total cell lysate.
Western blotting was performed as described in Uomizu, M. et al, J Med Dent Sci. vol. 65, pp. 73 to 82. The antibodies used were purchased from Cell Signaling Technology (phospho-p44/42 (#4370), p44/42 (#9102), phospho-Akt (#9271), and Akt (#9272)).

## Activin A: homodimer of two inhibin βA chains; recombinant human protein purchased from R&D Systems
[1]
  proliferation of rheumatoid arthritis-derived synovial cells: promotes the proliferation
Synovial MSCs [2]
  proliferation of MSCs (MTT assay): significantly activated
[3]; 180 ng intra-articular, safranin O
  degenerative degeneration of articular cartilage around the defect site: significantly suppressed
[3]
  chondrogenic differentiation of the formed tissue: no significant promotion effect
[3]; intra-articular 1 week after defect (rh Activin A 180 ng/knee, rrPDGF-AA 900 ng/knee), vs PBS
  formation of fibrocartilage-like tissue in the articular cartilage defect site: promote the formation of fibrocartilage-like tissue
proteoglycans
  expression of proteoglycans: promotes the expression of proteoglycans
Synovial MSCs [4]; added to chondrogenic differentiation medium, pellet culture 2 weeks, FIG. 6C
  production of cartilage matrix: no significant promotive effect
Synovial MSCs [4]; after 2 weeks of culture in the presence of Activin A, vs control, FIG. 6B
  differentiation induction toward chondrocytic, osteoblastic and adipocytic cells: no significant changes
p44/42 MAPK (Erk1/2); Activin A alone, MSCs serum-starved 24 hours, within 30 minutes
  phosphorylation of Erk1/2: not detected
p44/42 MAPK (Erk1/2); Activin A together with PDGF-AA
  intracellular Erk phosphorylation: no enhancement
